From US8410045B2, “Camptothecin-peptide conjugates and pharmaceutical compositions containing the same” (Drais Pharmaceuticals, Inc., priority 2006, dated 2013)
pIC50: −log10 of the molar value. Like-named read-outs stand apart in the source and are kept apart here. Marks after values point to notes of the source that are not given here.

Key:
[1] = Stability of conjugates in citrated plasma at 37° C. (half life time, HPLC fluorescence); format: in vitro ADME, human; details: for half-life: human, plasma
Outline: (§1)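 Conjugates at 2.55 μM incubated at 37° C in citrated plasma of several species, including human and dog. After TFA/acid extraction, released free camptothecin derivative (e.g. SN38) measured by reversed-phase C18 HPLC with fluorescence detection; half-life taken as time to 50 mol% release.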

[2] = as above; format: in vitro ADME; details: dog
Outline: as §1

[3] = test system: LS 174T human colorectal carcinoma tumor; test: Antitumor efficacy in human LS 174T xenograft colon tumor model implanted in nude rats; format: in vivo
Protocol: The LS 174T study was performed using female nude rats (8 weeks old) purchased from Harlan breeding center (Gannat, France). LS 174T tumors were established by a subcutaneously implantation of cell (ATCC Number: CCl-188) suspensions in the right flank of the animals. The first injection of drugs was performed when the tumors reached a size of about 1000 mm^3. The tumor volume was calculated using the following formula: [length×width^2]/2.

[4] = test system: HT-29 colorectal carcinoma; test: Antitumor efficacy in HT-29 colorectal carcinoma model in nude mice; format: in vivo; details: Table 7
[5] = test system: MDA-MB-231 mammary carcinoma; test: Antitumor efficacy in MDA-MB-231 mammary carcinoma model in nude mice; format: in vivo; details: Table 7, i.v. Q2D3 × 3 W
[6] = test system: HCT 116 human epithelial colon carcinoma cells; test: cells; format: cell-based
Protocol: Cytotoxic evaluation was performed by seeded cells for 24 h prior to the addition of the therapeutic compound. Cells were incubated for 48 h (37° C.) with different dilutions of the therapeutic compound. Cell viability was then assessed using the WST-1 assay (Roche). The results are expressed as mean cytotoxic concentrations (IC50 value or molar concentration that inhibits 50% of cell viability) that were estimated from sigmoid regression, using Graph Pad Prism 3.02 software.
HCT 116 (ATCC #: CCL-247): human epithelial colon carcinoma cells. Cells were cultured in Mc Coy's 5a medium+1.5 mM L-glutamine and 10% fetal bovine serum. Cells were plated at a density of 8000 cells/well in 96-well plates.

[7] = test system: HCT 116 human colorectal carcinoma tumor
[8] = Table 4, 20 (cumulative 100) μmol/kg, i.v. bolus, Q3/4Dx5
[9] = Table 7, i.v. Q4D × 5, 10 μmol/kg
[10] = Table 7, i.v. Q4D × 5, 20 μmol/kg
[11] = Table 3, 30 (cumulative 90) μmol/kg, i.v. bolus, Q4Dx3
[12] = Table 7, i.v. Q2D3 × 3 W, 25 μmol/kg

## CCc1c2c(nc3ccc(OC(=O)[C@H]4CC[C@H](CNC(=O)C5CCC(CN6C(=O)CC(SC[C@H](N)C(=O)N[C@H](C(=O)N[C@@H](CCCCN)C(=O)N[C@@H](CCCNC(=N)N)C(=O)NCC(=O)N[C@@H](CC(C)C)C(=O)N[C@@H](CCCCN)C(=O)N[C@@H](CC(C)C)C(=O)N[C@@H](CCCNC(=N)N)C(=O)N[C@@H](Cc7c[nH]cn7)C(=O)N[C@H](C(=O)N[C@@H](CCCNC(=N)N)C(=O)N7CCC[C@H]7C(=O)N[C@@H](CCCNC(=N)N)C(=O)N[C@H](C(=O)N[C@H](C(=O)N[C@@H](CCCNC(=N)N)C(=O)N[C@@H](CCSC)C(=O)N[C@@H](CC(=O)O)C(=O)N[C@H](C(=O)O)C(C)C)[C@@H](C)O)C(C)C)C(C)C)C(C)C)C6=O)CC5)CC4)cc13)-c1cc3c(c(=O)n1C2)COC(=O)[C@]3(O)CC (single isomer, unassigned) [DPV1047-BCH-SN38]
[1]; human plasma
  half life time, times longer than the DPV1047-linker #2-SN38 conjugate: 60 times
[1]; DPV1047-linker-SN38, 2.55 μM, citrated plasma, read-out: Half life time, Human plasma
  half-life: 6.67 h
[1]; Table 10, SN38 conjugates, read-out: Human Plasma Half life time
  half-life: 6 h
[1]; Table 12, CPP-linker #5-SN38 conjugates incl. D conformation, read-out: Human Plasma Half life time
  half-life: 6.37 h
[2]; DPV1047-linker-SN38, 2.55 μM, citrated plasma, read-out: Half life time, Dog plasma
  half-life: 4.5 h
[2]; Table 10, SN38 conjugates, read-out: Dog Plasma Half life time
  half-life: 4.33 h
[2]; Table 12, CPP-linker #5-SN38 conjugates incl. D conformation, read-out: Dog Plasma Half life time
  half-life: 4 h
[3]; [8]
  Minimal T/C (%): 43%
  TGI %: 57*** %
[3]; [9]
  Optimal T/C %: 47.2%
  TGI %: 52.8%
[3]; [10]
  Optimal T/C %: 42.8%
  TGI %: 57.2%
[4]; i.v. Q4D × 3, 12.5 μmol/kg
  Optimal T/C %: 66.8%
  TGI %: 33.2%
[4]; i.v. Q4D × 3, 25 μmol/kg
  Optimal T/C %: 39.2%
  TGI %: 60.8%
[5]; 12.5 μmol/kg
  Optimal T/C %: 34.1%
  TGI %: 65.9%
[5]; 25 μmol/kg
  Optimal T/C %: 30.1%
  TGI %: 69.9%
[6]; 24 h
  pIC50: 7.62
[6]; 48 h
  pIC50: 7.54
[7]; HCT 116 tumor-bearing nude mice, conjugates administered at their MADs
  clinical signs of toxicity such as body weight loss, diarrhea or alopecia: No clinical signs of toxicity
[7]; [11]
  Minimal T/C (%): 10%
  TGI %: 80%
[7]; Table 5, Q1D5, 18 (cumulative 90) μmol/kg
  TGI (100-T/C %): 93*** %
[7]; Table 5, Q1D5, 18 (cumulative 90) μmol/kg, i.v. bolus
  Minimal T/C (%): 7%
[7]; Table 5, Q2D3x3W, DPV1047-BCH-SN38 25 (225), irinotecan 48 (432) μmol/kg
  Minimal T/C (%): 3%
[7]; Table 5, Q2D3x3W, DPV1047-BCH-SN38 25, irinotecan 48 μmol/kg
  TGI (100-T/C %): 97*** %
[7]; [12]
  Optimal T/C %: 3.4%
  TGI %: 96.6%
[7]; mouse, in vivo
  Minimal T/C (%): 10%
  TGI (100-T/C %): 90*** %
